Reference: US12643871B2, “Aryl formamide compound containing chiral sulfur oxide or salt thereof, preparation method, herbicidal composition and use thereof” (Qingdao Kingagroot Chemical Compound Co., Ltd., priority 2019, dated 2026)

Experiments:
Assay in all cases: Weeding effect in post-emergence stage
Type in all cases: in vivo
Conditions in all cases: 250 g/ha; 2 leaf stage; 15 days after application; fresh weight control rate
Amaranthus retroflexus = system: Amaranthus retroflexus
Method in brief: (§1)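 Post-emergence spray, 2-leaf stage; doses 500–15 g/ha; acetone + Tween 80 + methyl oleate EC (1.5 L/ha) as synergist. Greenhouse 15 d. Readout: fresh weight control rate graded levels 0–5 (5 = above 85%, 0 = below 5%); triplicate means.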

Setaria viridis = system: Setaria viridis
Method in brief: as §1

Digitaria sanguinalis = system: Digitaria sanguinalis
Method in brief: as §1

Echinochloa crusgali = system: Echinochloa crusgali
Method in brief: as §1

Abutilon theophrasti = system: Abutilon theophrasti
Method in brief: as §1

Compound | weeding effect in post-emergence stage, activity level (growth control rate), Amaranthus retroflexus (Amaranthus retroflexus) | weeding effect in post-emergence stage, activity level (growth control rate), Setaria viridis (Setaria viridis) | weeding effect in post-emergence stage, activity level (growth control rate), Digitaria sanguinalis (Digitaria sanguinalis) | weeding effect in post-emergence stage, activity level (growth control rate), Echinochloa crusgali (Echinochloa crusgali) | weeding effect in post-emergence stage, activity level (growth control rate), Abutilon theophrasti (Abutilon theophrasti)
CC[S+]([O-])c1c(C(F)(F)F)ccc(C(=O)N(c2nnc(C)o2)C(C)OC(=O)OC)c1OC (mixture of isomers) [Compound 421] | 5 (Level 5: growth control rate is above 85%) | 5 (Level 5: growth control rate is above 85%) | 5 (Level 5: growth control rate is above 85%) | 5 (Level 5: growth control rate is above 85%) | 5 (Level 5: growth control rate is above 85%)
CCOC(=O)OC(C)N(C(=O)c1ccc(C(F)(F)F)c([S+]([O-])CC)c1OC)c1nnc(C)o1 (mixture of isomers) [Compound 422] | 5 (Level 5: growth control rate is above 85%) | 5 (Level 5: growth control rate is above 85%) | 5 (Level 5: growth control rate is above 85%) | 5 (Level 5: growth control rate is above 85%) | 5 (Level 5: growth control rate is above 85%)
CCC(C)[S@@+]([O-])c1c(C(F)(F)F)ccc(C(=O)Nc2nnc(C)o2)c1F (stereo partly drawn) [Compound 5] | 5 (Level 5: growth control rate is above 85%) | 5 (Level 5: growth control rate is above 85%) | 5 (Level 5: growth control rate is above 85%) | 5 (Level 5: growth control rate is above 85%) | 5 (Level 5: growth control rate is above 85%)
Cc1c(C(=O)Nc2nnnn2C)ccc(S(C)(=O)=O)c1[S@+]([O-])CC#N [Compound 527] | 5 (Level 5: growth control rate is above 85%) |  | 5 (Level 5: growth control rate is above 85%) | 5 (Level 5: growth control rate is above 85%) | 5 (Level 5: growth control rate is above 85%)
COCC[S@@+]([O-])c1c(S(C)(=O)=O)ccc(C(=O)Nc2nnnn2C)c1C [Compound 528] | 5 (Level 5: growth control rate is above 85%) |  | 5 (Level 5: growth control rate is above 85%) | 5 (Level 5: growth control rate is above 85%) | 5 (Level 5: growth control rate is above 85%)
CCC[S@@+]([O-])c1c(C(F)(F)F)ccc(C(=O)Nc2nnc(C)o2)c1OCOC [Compound 536] | 5 (Level 5: growth control rate is above 85%) |  | 5 (Level 5: growth control rate is above 85%) | 5 (Level 5: growth control rate is above 85%) | 5 (Level 5: growth control rate is above 85%)
CCC[S@@+]([O-])c1c(C(F)(F)F)ccc(C(=O)Nc2nnc(C)o2)c1C [Compound 537] | 5 (Level 5: growth control rate is above 85%) |  | 5 (Level 5: growth control rate is above 85%) | 5 (Level 5: growth control rate is above 85%) | 5 (Level 5: growth control rate is above 85%)
CCC[S@@+]([O-])c1c(C(F)(F)F)ccc(C(=O)Nc2nnc(C)o2)c1CC [Compound 538] | 5 (Level 5: growth control rate is above 85%) |  | 5 (Level 5: growth control rate is above 85%) | 5 (Level 5: growth control rate is above 85%) | 5 (Level 5: growth control rate is above 85%)
CCC[S@@+]([O-])c1c(C(F)(F)F)ccc(C(=O)Nc2nnc(C)o2)c1Br [Compound 544] | 5 (Level 5: growth control rate is above 85%) |  | 5 (Level 5: growth control rate is above 85%) | 5 (Level 5: growth control rate is above 85%) | 5 (Level 5: growth control rate is above 85%)
CCC[S@@+]([O-])c1c(C(F)(F)F)ccc(C(=O)Nc2nnc(C)o2)c1I [Compound 545] | 5 (Level 5: growth control rate is above 85%) |  | 5 (Level 5: growth control rate is above 85%) | 5 (Level 5: growth control rate is above 85%) | 5 (Level 5: growth control rate is above 85%)
CCC[S@@+]([O-])c1c(C(F)(F)F)ccc(C(=O)Nc2nnc(C)o2)c1C#N [Compound 546] | 5 (Level 5: growth control rate is above 85%) |  | 5 (Level 5: growth control rate is above 85%) | 5 (Level 5: growth control rate is above 85%) | 5 (Level 5: growth control rate is above 85%)
CCC[S@@+]([O-])c1c(C(F)(F)F)ccc(C(=O)Nc2nnc(C)o2)c1SCOC [Compound 573] | 5 (Level 5: growth control rate is above 85%) |  | 5 (Level 5: growth control rate is above 85%) | 5 (Level 5: growth control rate is above 85%) | 5 (Level 5: growth control rate is above 85%)
